# From US11083735B2, “Methods for treating sleep disorders, sleep disturbances, and related symptoms using aminosterol compositions” (Enterin, Inc., priority 2017, dated 2021)
# What was measured:
# [1] = system: patients with PD and constipation; test: Phase 2 trial Stage 1: adverse events
# Procedure: In Stage 1, ten (10) PD patients received a single escalating dose of squalamine (ENT-01) every 3-7 days beginning at 25 mg and continuing up to 200 mg or the limit of tolerability, followed by 2-weeks of wash-out. Duration of this part of the trial was 22-57 days. The 10 subjects in the sentinel group were assigned to Cohort 1 and participated in 8 single dosing periods. Tolerability limits included diarrhea or vomiting.
# Each dose period was staggered, so that subjects 1-2 were administered a single dose of the drug at the lowest dose of 25 mg. Once 24 hours have elapsed, and provided there are no safety concerns, the patient was sent home and brought back on day 4-8 for the next dose. During the days the subjects are home, they completed the daily diaries and e-mailed them to the study coordinators. Subjects 3-10 were dosed after the first 2 subjects have been observed for 72 hours, i.e. on Day 4. Subjects 1-2 were also brought back on Day 4-8 and given a single dose of 50 mg. Once another 24 hours have elapsed and provided there are no safety concerns, the patients were all sent home and instructed to return on Day 7 for the next dosing level. This single dosing regimen was continued until each subject was given a single dose of 200 mg or has reached a dose limiting toxicity (DLT). DLT was the dose which induces repeated vomiting, diarrhea, abdominal pain or symptomatic postural hypotension within 24 hours of dosing.
# (§1) Adverse events were coded using the current version of MedDRA. Severity of AEs were assessed by investigators according to CTCAE (v4.03): Grade 1 is labeled as Mild, Grade 2 as Moderate, and Grade 3 and above as Severe. […] The number (percentage) of subjects who experienced an AE during escalation and fixed dosing periods were summarized by dose level and overall for each stage. The denominator for calculating the percentages were based on the number of subjects ever exposed to each dose and overall.
# [2] = system: patients with PD and constipation; test: Phase 2 trial Stage 2: adverse events; conditions: for Common adverse events by dose: Dizziness: lightheadedness included
# Procedure: In Stage 2, 34 patients were evaluated. […] This dose was then maintained (“fixed dose”) for an additional 3-5 days. After the “fixed dose”, these patients were randomly assigned to either continued treatment at that dose or to a matching placebo, for an additional 4-6 days prior to a 2-week wash-out.
# A second cohort of 19 patients received squalamine (ENT-01) escalating from 100 mg/day to a maximum of 250 mg/day without subsequent randomization to squalamine (ENT-01) or placebo. Criteria for dose selection and efficacy were identical to those used in the previous cohort.
# as §1
# [3] = Stage 1, 10 dosed, Unrelated to ENT-01
smiles,measurement,setting,value
"CC(C)[C@@H](CC[C@@H](C)[C@H]1CC[C@H]2[C@@H]3[C@H](O)C[C@H]4C[C@@H](NCCCNCCCCN)CC[C@]4(C)[C@H]3CC[C@]12C)OS(=O)(=O)O (single isomer, unassigned; ent-01) [ENT-01]",AEs confined to the GI tract,[1]; Stage 1,88%
same,"Diarrhea, patients","[1]; Stage 1, 4/10",40%
same,"nausea, patients","[1]; Stage 1, 4/10",40%
same,"Abdominal pain, Mild","[1]; Stage 1, 10 dosed","2(20) n, %"
same,"Abdominal pain, Moderate","[1]; Stage 1, 10 dosed","3(30) n, %"
same,"Blood in urine, Moderate","[1]; Stage 1, 10 dosed","0 n, %"
same,"Diarrhea, Mild","[1]; Stage 1, 10 dosed","1(10) n, %"
same,"Diarrhea, Moderate","[1]; Stage 1, 10 dosed","3(30) n, %"
same,"Diarrhea, Severe","[1]; Stage 1, 10 dosed","0 n, %"
same,"Difficulty falling asleep, Mild","[1]; Stage 1, 10 dosed","0 n, %"
same,"Difficulty falling asleep, Moderate","[1]; Stage 1, 10 dosed","0 n, %"
same,"Dizziness, Mild","[1]; Stage 1, 10 dosed","0 n, %"
same,"Dizziness, Moderate","[1]; Stage 1, 10 dosed","0 n, %"
same,"Flatulence, Mild","[1]; Stage 1, 10 dosed","2(20) n, %"
same,"Flatulence, Moderate","[1]; Stage 1, 10 dosed","0 n, %"
same,"Headache, Mild","[1]; Stage 1, 10 dosed","1(10) n, %"
same,"Headache, Moderate","[1]; Stage 1, 10 dosed","0 n, %"
same,"Increased urinary frequency, Mild","[1]; Stage 1, 10 dosed","0 n, %"
same,"Increased urinary frequency, Moderate","[1]; Stage 1, 10 dosed","0 n, %"
same,"Loss of appetite, Moderate","[1]; Stage 1, 10 dosed","0 n, %"
same,"Lower GI bleed, Severe","[1]; Stage 1, 10 dosed","0 n, %"
same,"Nausea, Mild","[1]; Stage 1, 10 dosed","4(40) n, %"
same,"Nausea, Moderate","[1]; Stage 1, 10 dosed","0 n, %"
same,"Skin lesions-rash, Mild","[1]; Stage 1, 10 dosed","0 n, %"
same,"Skin lesions-rash, Moderate","[1]; Stage 1, 10 dosed","0 n, %"
same,"Urinary retention, Mild","[1]; Stage 1, 10 dosed","0 n, %"
same,"Urinary retention, Moderate","[1]; Stage 1, 10 dosed","0 n, %"
same,"Vomiting, Mild","[1]; Stage 1, 10 dosed","1(10) n, %"
same,"Vomiting, Moderate","[1]; Stage 1, 10 dosed","0 n, %"
same,"Worsening acid reflux, Mild","[1]; Stage 1, 10 dosed","0 n, %"
same,"Worsening acid reflux, Moderate","[1]; Stage 1, 10 dosed","0 n, %"
same,"Worsening hemorrhoid, Mild","[1]; Stage 1, 10 dosed","0 n, %"
same,"Worsening hemorrhoid, Moderate","[1]; Stage 1, 10 dosed","0 n, %"
same,"Blood in urine, Mild",[1]; [3],"1(10) n, %"
same,"Loss of appetite, Mild",[1]; [3],"1(10) n, %"
same,Common adverse events by dose: Diarrhea,"[1]; Stage 1, dose 25 mg",1
same,Common adverse events by dose: Nausea,"[1]; Stage 1, dose 25 mg",0
same,Common adverse events by dose: Vomiting,"[1]; Stage 1, dose 25 mg",0
same,Common adverse events by dose: Diarrhea,"[1]; Stage 1, dose 50 mg",1
same,Common adverse events by dose: Nausea,"[1]; Stage 1, dose 50 mg",0
same,Common adverse events by dose: Vomiting,"[1]; Stage 1, dose 50 mg",0
same,Common adverse events by dose: Diarrhea,"[1]; Stage 1, dose 75 mg",1
same,Common adverse events by dose: Nausea,"[1]; Stage 1, dose 75 mg",0
same,Common adverse events by dose: Vomiting,"[1]; Stage 1, dose 75 mg",0
same,Common adverse events by dose: Diarrhea,"[1]; Stage 1, dose 100 mg",0
same,Common adverse events by dose: Nausea,"[1]; Stage 1, dose 100 mg",1
same,Common adverse events by dose: Vomiting,"[1]; Stage 1, dose 100 mg",1
same,Common adverse events by dose: Diarrhea,"[1]; Stage 1, dose 125 mg",1
same,Common adverse events by dose: Nausea,"[1]; Stage 1, dose 125 mg",2
same,Common adverse events by dose: Vomiting,"[1]; Stage 1, dose 125 mg",1
same,Common adverse events by dose: Diarrhea,"[1]; Stage 1, dose 150 mg",1
same,Common adverse events by dose: Nausea,"[1]; Stage 1, dose 150 mg",0
same,Common adverse events by dose: Vomiting,"[1]; Stage 1, dose 150 mg",0
same,Common adverse events by dose: Diarrhea,"[1]; Stage 1, dose 175 mg",1
same,Common adverse events by dose: Nausea,"[1]; Stage 1, dose 175 mg",1
same,Common adverse events by dose: Vomiting,"[1]; Stage 1, dose 175 mg",0
same,Common adverse events by dose: Diarrhea,"[1]; Stage 1, dose 200 mg",0
same,Common adverse events by dose: Nausea,"[1]; Stage 1, dose 200 mg",2
same,Common adverse events by dose: Vomiting,"[1]; Stage 1, dose 200 mg",0
same,AEs confined to the GI tract,[2]; Stage 2,63%
same,"Diarrhea, patients","[2]; Stage 2, 15/34",44%
same,"nausea, patients","[2]; Stage 2, 18/34",52.9%
same,"Abdominal pain, Mild","[2]; Stage 2, 34 dosed","4(11.7) n, %"
same,"Abdominal pain, Moderate","[2]; Stage 2, 34 dosed","2(5.8) n, %"
same,"Blood in urine, Mild","[2]; Stage 2, 34 dosed","0 n, %"
same,"Blood in urine, Moderate","[2]; Stage 2, 34 dosed","0 n, %"
same,"Diarrhea, Mild","[2]; Stage 2, 34 dosed","12(35) n, %"
same,"Diarrhea, Moderate","[2]; Stage 2, 34 dosed","2(5.8) n, %"
same,"Diarrhea, Severe","[2]; Stage 2, 34 dosed","1(2.9) n, %"
same,"Difficulty falling asleep, Mild","[2]; Stage 2, 34 dosed","1(3) n, %"
same,"Difficulty falling asleep, Moderate","[2]; Stage 2, 34 dosed","0 n, %"
same,"Dizziness, Mild","[2]; Stage 2, 34 dosed","7(20.5) n, %"
same,"Dizziness, Moderate","[2]; Stage 2, 34 dosed","1(2.9) n, %"
same,"Flatulence, Mild","[2]; Stage 2, 34 dosed","1(3) n, %"
same,"Flatulence, Moderate","[2]; Stage 2, 34 dosed","0 n, %"
same,"Headache, Mild","[2]; Stage 2, 34 dosed","3(8.8) n, %"
same,"Headache, Moderate","[2]; Stage 2, 34 dosed","0 n, %"
same,"Increased urinary frequency, Mild","[2]; Stage 2, 34 dosed","2(5.8) n, %"
same,"Increased urinary frequency, Moderate","[2]; Stage 2, 34 dosed","0 n, %"
same,"Loss of appetite, Mild","[2]; Stage 2, 34 dosed","0 n, %"
same,"Loss of appetite, Moderate","[2]; Stage 2, 34 dosed","0 n, %"
same,"Nausea, Mild","[2]; Stage 2, 34 dosed","18(52) n, %"
same,"Nausea, Moderate","[2]; Stage 2, 34 dosed","1(2.9) n, %"
same,"Skin lesions-rash, Mild","[2]; Stage 2, 34 dosed","3(8.8) n, %"
same,"Skin lesions-rash, Moderate","[2]; Stage 2, 34 dosed","0 n, %"
same,"Urinary retention, Mild","[2]; Stage 2, 34 dosed","1(3) n, %"
same,"Urinary retention, Moderate","[2]; Stage 2, 34 dosed","0 n, %"
same,"Vomiting, Mild","[2]; Stage 2, 34 dosed","2(5.8) n, %"
same,"Vomiting, Moderate","[2]; Stage 2, 34 dosed","0 n, %"
same,"Worsening acid reflux, Mild","[2]; Stage 2, 34 dosed","4(11.7) n, %"
same,"Worsening acid reflux, Moderate","[2]; Stage 2, 34 dosed","0 n, %"
same,"Worsening hemorrhoid, Mild","[2]; Stage 2, 34 dosed","1(3) n, %"
same,"Worsening hemorrhoid, Moderate","[2]; Stage 2, 34 dosed","0 n, %"
same,Common adverse events by dose: Diarrhea,"[2]; Stage 2, dose 75 mg",7
same,Common adverse events by dose: Nausea,"[2]; Stage 2, dose 75 mg",3
same,Common adverse events by dose: Dizziness,"[2]; Stage 2, dose 75 mg",8
same,Common adverse events by dose: Diarrhea,"[2]; Stage 2, dose 100 mg",10
same,Common adverse events by dose: Nausea,"[2]; Stage 2, dose 100 mg",12
same,Common adverse events by dose: Dizziness,"[2]; Stage 2, dose 100 mg",7
same,Common adverse events by dose: Diarrhea,"[2]; Stage 2, dose 125 mg",3
same,Common adverse events by dose: Nausea,"[2]; Stage 2, dose 125 mg",4
same,Common adverse events by dose: Dizziness,"[2]; Stage 2, dose 125 mg",8
same,Common adverse events by dose: Diarrhea,"[2]; Stage 2, dose 150 mg",2
same,Common adverse events by dose: Nausea,"[2]; Stage 2, dose 150 mg",11
same,Common adverse events by dose: Dizziness,"[2]; Stage 2, dose 150 mg",2
same,Common adverse events by dose: Diarrhea,"[2]; Stage 2, dose 175 mg",1
same,Common adverse events by dose: Nausea,"[2]; Stage 2, dose 175 mg",12
same,Common adverse events by dose: Dizziness,"[2]; Stage 2, dose 175 mg",0
same,Common adverse events by dose: Diarrhea,"[2]; Stage 2, dose 200 mg",2
same,Common adverse events by dose: Nausea,"[2]; Stage 2, dose 200 mg",6
same,Common adverse events by dose: Diarrhea,"[2]; Stage 2, dose 225 mg",3
same,Common adverse events by dose: Nausea,"[2]; Stage 2, dose 225 mg",1
same,Common adverse events by dose: Diarrhea,"[2]; Stage 2, dose 250 mg",2
same,"Lower GI bleed, Severe","[2]; Stage 2, Unrelated to ENT-01 (diverticulosis, polyp, aspirin, Plavix, naproxen)","1(2.5) n, %"
